Experimental data: publication PMC6450673, “Targeted degradation of aberrant tau in frontotemporal dementia patient-derived neuronal cell models” (eLife, 2019)

Tests used:
[1] = molecular target: T1, recombinant human tau Tau-441(WT) (Homo sapiens, UniProt P10636); experiment: Bio-layer interferometry (BLI) biosensor assay, tau WT; format: binding; details: BLI steady-state analysis, immobilized biotinylated tau; Figure 1—figure supplement 1B
T1 construct: biotin (chemical label, NHS-PEG4); purchased SignalChem T08-54BN; host or cells: E. coli
T1 sequence (P10636 1-441 isoform P10636-8): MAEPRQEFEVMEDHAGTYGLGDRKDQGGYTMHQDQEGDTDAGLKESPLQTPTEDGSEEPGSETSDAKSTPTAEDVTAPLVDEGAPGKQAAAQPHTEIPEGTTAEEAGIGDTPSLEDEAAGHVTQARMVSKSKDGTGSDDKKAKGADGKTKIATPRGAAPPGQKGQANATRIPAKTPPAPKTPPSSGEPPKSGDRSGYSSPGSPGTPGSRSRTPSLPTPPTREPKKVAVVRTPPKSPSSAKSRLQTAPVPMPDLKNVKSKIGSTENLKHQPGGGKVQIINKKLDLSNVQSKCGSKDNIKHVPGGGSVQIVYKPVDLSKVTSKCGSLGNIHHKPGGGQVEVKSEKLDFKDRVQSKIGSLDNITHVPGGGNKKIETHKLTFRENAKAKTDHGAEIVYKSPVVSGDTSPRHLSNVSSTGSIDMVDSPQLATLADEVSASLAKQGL
Procedure: BLI was performed in the Octet Red384 instrument (ForteBio, Fremont CA, USA) with 1X PBS and 0.01% Brij-35 as the assay buffer. […] The biotinylated protein samples for BLI were purified in 1X phosphate buffered saline (PBS). Streptavidin (SA) sensors were used to measure the biophysical interaction between the small molecules and biotinylated tau. Prior to the initiation of BLI, the SA sensors were soaked by dipping in 200 μL of assay buffer in a 96-well Greiner Bio-One Black flat bottom plate (Greiner, Monroe NC, USA Cat.655209). The assay was performed in 80 μL volume in Greiner Bio-One 384-well black flat bottom PP plates (Greiner, Cat.781209) with an initial baseline step, followed by loading of 250 nM biotinylated tau protein. The small molecules samples and recombinant proteins were arranged in the 384-well plate according to a plate map recommended for the eight-channel mode kinetic analysis, where the sensors move from low to high concentration of small molecule samples. Subsequent steps included a second baseline (120 s), followed by association (240 s) and dissociation (240 s) cycles. […] When Req option is selected, Fortebio’s software calculates affinity constants based on the Req values determined from the curve fits. […]

[2] = molecular target: T2, total tau (TAU5) in control-1 8330–8-RC1 neurons (Homo sapiens, UniProt P10636); experiment: Western blot of total tau in control line 1 neurons; format: cell-based; details: control line 1, western blot, 1 μM, 24 hr
T2 construct: modeling pathogenic tau species without the need for overexpression of heterologous genes; endogenous in cells; host or cells: 8330-8-RC1, MGH2069-RC1, CTR2-L17-RC2 human iPSC-derived neurons
T2 sequence (P10636 1-441 isoform P10636-8): as above
Text: (§1) Cells from individuals carrying the tau risk variant A152T (c.1407G > A; NCBI RefSeq NM_001123066, rs143624519), the autosomal dominant mutation P301L (c.C1907T; NCBI NM_001123066, rs63751273), or age-matched non-mutant WT tau were employed in this study (Figure 2—source data 1). Dermal fibroblasts from the tau-P301L carrier and the healthy individual were generated from a skin biopsy from subjects within the MGH Frontotemporal Disorders Unit as part of the MGH Neurodegeneration Repository. Approval for human subjects’ work was obtained under a Partners/MGH-approved IRB Protocol (#2010P001611/MGH). […]
(§2) Neurons differentiated in six-well plates for 6 weeks were washed and collected in PBS, lysed in RIPA buffer (Boston Bio-Products, Boston, MA) supplemented with 2% SDS (Sigma), protease inhibitors cocktail (Roche Complete Mini tablets, Mannheim, Germany), and phosphatase inhibitors cocktail (Sigma), followed by water sonication (Bransonic Ultrasonic Baths, Thomas Scientific, Danbury, CT) and 20,000 g centrifugation for 20 min. Supernatants were transferred to new tubes and total protein concentration was quantified with the Pierce BCA Protein Assay Kit (ThermoFisher Scientific, Carlsbad, CA). […]

[3] = molecular target: T3, P-tau S396 in control-1 8330–8-RC1 neurons (Homo sapiens, UniProt P10636); experiment: Western blot of P-tau S396 in control line 1 neurons; format: cell-based; details: control line 1, western blot, 1 μM, 24 hr
T3 construct: modeling pathogenic tau species without the need for overexpression of heterologous genes; endogenous in cells; host or cells: 8330-8-RC1, MGH2069-RC1, CTR2-L17-RC2 human iPSC-derived neurons
T3 sequence (P10636 1-441 isoform P10636-8): as above
Text: as §1, §2

[4] = Neuronal stress and viability assay, rescue of Aβ(1-42) toxicity (Alamar Blue); format: cell-based, human; details: human, A152T neurons differentiated from NPCs for 8 weeks, 5μM compound alone, replicates I-VI; read-out: % Viability (Relative to Vehicle)

SMILES	Kd [1] [nM]	degradation of tau [2]	degradation of P-tau [3]	viability at 24 h, 5 µM [4] [%]
O=C(CCc1ccc2c(c1)[nH]c1ccncc12)NCCOCCOCCNc1cccc2c1C(=O)N(C1CCC(=O)NC1=O)C2=O (stereo not shown) [QC-01–175]	1200	unable to induce significant degradation	unable to induce significant degradation	–
O=C(CCc1ccc2c(c1)[nH]c1ccncc12)NCCOCCOCCNc1cccc2c1C(=O)N(C1CCCNC1=O)C2=O (stereo not shown) [QC-03–075]	–	–	–	104
